Measured values reported in PubChem BioAssay (NCI).
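Exposure lasted 48 hours, with cells grown in 96-well plates and compounds tested at five concentrations. GI50: concentration for 50% inhibition of growth. TGI: total growth inhibition.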

These compounds were tested on SF-295 CNS (assay: DTP human tumour cell line panel, 48 h).

| Compound | GI50 | TGI |
| --- | --- | --- |
| NCCCC[C@@H]1NC(=O)[C@H]2CCCN2C(=O)[C@H](Cc2ccccc2)NC(=O)[C@H](Cc2ccccc2)CNC1=O | > 100 µM | > 100 µM |
| O=C1c2ccccc2C(=O)C2NC(CCCCCSSCCCCCC3=NC4C(=O)c5ccccc5C(=O)C4N3)=NC12 (centres undefined) | – | > 100 µM |

These compounds were tested on UACC-62 melanoma (assay: DTP human tumour cell line panel, 48 h).

| Compound | GI50 | TGI |
| --- | --- | --- |
| COc1ccc(C(=O)COc2cccc(/C=C3\COc4ccc5ccccc5c4C3=O)c2)cc1 | 16.3 µM | > 100 µM |
| COc1cc2c(cc1C)NC(=O)/C2=C/c1cccnc1 | 10.1 µM | 25.9 µM |
| NCCCC[C@@H]1NC(=O)[C@H]2CCCN2C(=O)[C@H](Cc2ccccc2)NC(=O)[C@H](Cc2ccccc2)CNC1=O | > 100 µM | > 100 µM |

What follows are compounds tested on SK-MEL-28 melanoma (assay: DTP human tumour cell line panel, 48 h).

| Compound | GI50 | TGI |
| --- | --- | --- |
| COc1ccc(C(=O)COc2cccc(/C=C3\COc4ccc5ccccc5c4C3=O)c2)cc1 | 47.8 µM | > 100 µM |
| COc1cc2c(cc1C)NC(=O)/C2=C/c1cccnc1 | – | > 100 µM |
| NCCCC[C@@H]1NC(=O)[C@H]2CCCN2C(=O)[C@H](Cc2ccccc2)NC(=O)[C@H](Cc2ccccc2)CNC1=O | > 100 µM | > 100 µM |
| O=C1c2ccccc2C(=O)C2NC(CCCCCSSCCCCCC3=NC4C(=O)c5ccccc5C(=O)C4N3)=NC12 (centres undefined) | – | > 100 µM |
| CN(C)CCOc1ccc(/C(=C(/CCCCCCCCCC[P+](c2ccccc2)(c2ccccc2)c2ccccc2)c2ccccc2)c2ccccc2)cc1 | 0.364 µM | 1.79 µM |

Each compound was assayed on EKVX NSCLC (assay: DTP human tumour cell line panel, 48 h).

| Compound | GI50 | TGI |
| --- | --- | --- |
| COc1ccc(C(=O)COc2cccc(/C=C3\COc4ccc5ccccc5c4C3=O)c2)cc1 | 4.26 µM | > 100 µM |
| COc1cc2c(cc1C)NC(=O)/C2=C/c1cccnc1 | – | 47 µM |
| NCCCC[C@@H]1NC(=O)[C@H]2CCCN2C(=O)[C@H](Cc2ccccc2)NC(=O)[C@H](Cc2ccccc2)CNC1=O | > 100 µM | > 100 µM |
| O=C1c2ccccc2C(=O)C2NC(CCCCCSSCCCCCC3=NC4C(=O)c5ccccc5C(=O)C4N3)=NC12 (centres undefined) | – | > 100 µM |
| CN(C)CCOc1ccc(/C(=C(/CCCCCCCCCC[P+](c2ccccc2)(c2ccccc2)c2ccccc2)c2ccccc2)c2ccccc2)cc1 | 0.274 µM | 1.4 µM |

These compounds were tested on MOLT-4 leukemia (assay: DTP human tumour cell line panel, 48 h).

| Compound | GI50 | TGI |
| --- | --- | --- |
| COc1ccc(C(=O)COc2cccc(/C=C3\COc4ccc5ccccc5c4C3=O)c2)cc1 | 2.86 µM | 18.9 µM |
| COc1cc2c(cc1C)NC(=O)/C2=C/c1cccnc1 | – | 24.1 µM |
| NCCCC[C@@H]1NC(=O)[C@H]2CCCN2C(=O)[C@H](Cc2ccccc2)NC(=O)[C@H](Cc2ccccc2)CNC1=O | > 100 µM | > 100 µM |
| O=C1c2ccccc2C(=O)C2NC(CCCCCSSCCCCCC3=NC4C(=O)c5ccccc5C(=O)C4N3)=NC12 (centres undefined) | – | > 100 µM |

These compounds were tested on BT-549 breast (assay: DTP human tumour cell line panel, 48 h).

| Compound | GI50 | TGI |
| --- | --- | --- |
| COc1ccc(C(=O)COc2cccc(/C=C3\COc4ccc5ccccc5c4C3=O)c2)cc1 | 8.44 µM | > 100 µM |
| COc1cc2c(cc1C)NC(=O)/C2=C/c1cccnc1 | – | > 82 µM |
| NCCCC[C@@H]1NC(=O)[C@H]2CCCN2C(=O)[C@H](Cc2ccccc2)NC(=O)[C@H](Cc2ccccc2)CNC1=O | > 100 µM | > 100 µM |

What follows are compounds tested on MCF7 breast (assay: DTP human tumour cell line panel, 48 h).

| Compound | GI50 | TGI |
| --- | --- | --- |
| COc1ccc(C(=O)COc2cccc(/C=C3\COc4ccc5ccccc5c4C3=O)c2)cc1 | 2.48 µM | > 100 µM |
| COc1cc2c(cc1C)NC(=O)/C2=C/c1cccnc1 | – | 32.3 µM |
| NCCCC[C@@H]1NC(=O)[C@H]2CCCN2C(=O)[C@H](Cc2ccccc2)NC(=O)[C@H](Cc2ccccc2)CNC1=O | > 100 µM | > 100 µM |
| O=C1c2ccccc2C(=O)C2NC(CCCCCSSCCCCCC3=NC4C(=O)c5ccccc5C(=O)C4N3)=NC12 (centres undefined) | – | > 100 µM |

These compounds were tested on UACC-257 melanoma (assay: DTP human tumour cell line panel, 48 h).

| Compound | GI50 | TGI |
| --- | --- | --- |
| COc1ccc(C(=O)COc2cccc(/C=C3\COc4ccc5ccccc5c4C3=O)c2)cc1 | 39.7 µM | > 100 µM |
| COc1cc2c(cc1C)NC(=O)/C2=C/c1cccnc1 | – | 27.7 µM |
| NCCCC[C@@H]1NC(=O)[C@H]2CCCN2C(=O)[C@H](Cc2ccccc2)NC(=O)[C@H](Cc2ccccc2)CNC1=O | > 100 µM | > 100 µM |
| O=C1c2ccccc2C(=O)C2NC(CCCCCSSCCCCCC3=NC4C(=O)c5ccccc5C(=O)C4N3)=NC12 (centres undefined) | – | > 100 µM |

These compounds were tested on SNB-19 CNS (assay: DTP human tumour cell line panel, 48 h).

| Compound | GI50 | TGI |
| --- | --- | --- |
| COc1ccc(C(=O)COc2cccc(/C=C3\COc4ccc5ccccc5c4C3=O)c2)cc1 | 9.37 µM | > 100 µM |
| COc1cc2c(cc1C)NC(=O)/C2=C/c1cccnc1 | – | 32.1 µM |
| NCCCC[C@@H]1NC(=O)[C@H]2CCCN2C(=O)[C@H](Cc2ccccc2)NC(=O)[C@H](Cc2ccccc2)CNC1=O | > 100 µM | > 100 µM |

These compounds were tested on NCI-H23 lung (assay: DTP human tumour cell line panel, 48 h).

| Compound | GI50 | TGI |
| --- | --- | --- |
| COc1ccc(C(=O)COc2cccc(/C=C3\COc4ccc5ccccc5c4C3=O)c2)cc1 | 5.17 µM | > 100 µM |
| COc1cc2c(cc1C)NC(=O)/C2=C/c1cccnc1 | – | 24.8 µM |
| NCCCC[C@@H]1NC(=O)[C@H]2CCCN2C(=O)[C@H](Cc2ccccc2)NC(=O)[C@H](Cc2ccccc2)CNC1=O | > 100 µM | > 100 µM |
| O=C1c2ccccc2C(=O)C2NC(CCCCCSSCCCCCC3=NC4C(=O)c5ccccc5C(=O)C4N3)=NC12 (centres undefined) | – | > 100 µM |

The compounds below were run on CCRF-CEM leukemia (assay: DTP human tumour cell line panel, 48 h).

| Compound | GI50 | TGI |
| --- | --- | --- |
| COc1ccc(C(=O)COc2cccc(/C=C3\COc4ccc5ccccc5c4C3=O)c2)cc1 | 1.92 µM | 6.26 µM |
| COc1cc2c(cc1C)NC(=O)/C2=C/c1cccnc1 | – | > 56.8 µM |
| NCCCC[C@@H]1NC(=O)[C@H]2CCCN2C(=O)[C@H](Cc2ccccc2)NC(=O)[C@H](Cc2ccccc2)CNC1=O | > 100 µM | > 100 µM |
| O=C1c2ccccc2C(=O)C2NC(CCCCCSSCCCCCC3=NC4C(=O)c5ccccc5C(=O)C4N3)=NC12 (centres undefined) | – | > 100 µM |

What follows are compounds tested on DU-145 prostate (assay: DTP human tumour cell line panel, 48 h).

| Compound | GI50 | TGI |
| --- | --- | --- |
| COc1ccc(C(=O)COc2cccc(/C=C3\COc4ccc5ccccc5c4C3=O)c2)cc1 | 4.25 µM | > 100 µM |
| COc1cc2c(cc1C)NC(=O)/C2=C/c1cccnc1 | – | 27.3 µM |
| NCCCC[C@@H]1NC(=O)[C@H]2CCCN2C(=O)[C@H](Cc2ccccc2)NC(=O)[C@H](Cc2ccccc2)CNC1=O | > 100 µM | > 100 µM |
| O=C1c2ccccc2C(=O)C2NC(CCCCCSSCCCCCC3=NC4C(=O)c5ccccc5C(=O)C4N3)=NC12 (centres undefined) | – | > 100 µM |
| CN(C)CCOc1ccc(/C(=C(/CCCCCCCCCC[P+](c2ccccc2)(c2ccccc2)c2ccccc2)c2ccccc2)c2ccccc2)cc1 | 0.258 µM | 1.35 µM |

What follows are compounds tested on CAKI-1 renal (assay: DTP human tumour cell line panel, 48 h).

| Compound | GI50 | TGI |
| --- | --- | --- |
| COc1ccc(C(=O)COc2cccc(/C=C3\COc4ccc5ccccc5c4C3=O)c2)cc1 | 8.24 µM | 78.3 µM |
| COc1cc2c(cc1C)NC(=O)/C2=C/c1cccnc1 | – | 30.3 µM |
| NCCCC[C@@H]1NC(=O)[C@H]2CCCN2C(=O)[C@H](Cc2ccccc2)NC(=O)[C@H](Cc2ccccc2)CNC1=O | > 100 µM | > 100 µM |
| O=C1c2ccccc2C(=O)C2NC(CCCCCSSCCCCCC3=NC4C(=O)c5ccccc5C(=O)C4N3)=NC12 (centres undefined) | – | > 100 µM |

What follows are compounds tested on U251 CNS (assay: DTP human tumour cell line panel, 48 h).

| Compound | GI50 | TGI |
| --- | --- | --- |
| COc1ccc(C(=O)COc2cccc(/C=C3\COc4ccc5ccccc5c4C3=O)c2)cc1 | 5.61 µM | > 100 µM |
| COc1cc2c(cc1C)NC(=O)/C2=C/c1cccnc1 | – | > 52.5 µM |
| NCCCC[C@@H]1NC(=O)[C@H]2CCCN2C(=O)[C@H](Cc2ccccc2)NC(=O)[C@H](Cc2ccccc2)CNC1=O | > 100 µM | > 100 µM |
| O=C1c2ccccc2C(=O)C2NC(CCCCCSSCCCCCC3=NC4C(=O)c5ccccc5C(=O)C4N3)=NC12 (centres undefined) | – | > 100 µM |

Each compound was assayed on SR leukemia (assay: DTP human tumour cell line panel, 48 h).

| Compound | TGI |
| --- | --- |
| O=C1c2ccccc2C(=O)C2NC(CCCCCSSCCCCCC3=NC4C(=O)c5ccccc5C(=O)C4N3)=NC12 (centres undefined) | > 100 µM |

What follows are compounds tested on M14 melanoma (assay: DTP human tumour cell line panel, 48 h).

| Compound | GI50 | TGI |
| --- | --- | --- |
| COc1ccc(C(=O)COc2cccc(/C=C3\COc4ccc5ccccc5c4C3=O)c2)cc1 | 67.8 µM | > 100 µM |
| COc1cc2c(cc1C)NC(=O)/C2=C/c1cccnc1 | – | 37.5 µM |
| NCCCC[C@@H]1NC(=O)[C@H]2CCCN2C(=O)[C@H](Cc2ccccc2)NC(=O)[C@H](Cc2ccccc2)CNC1=O | > 100 µM | > 100 µM |
| O=C1c2ccccc2C(=O)C2NC(CCCCCSSCCCCCC3=NC4C(=O)c5ccccc5C(=O)C4N3)=NC12 (centres undefined) | – | > 100 µM |

What follows are compounds tested on K-562 leukemia (assay: DTP human tumour cell line panel, 48 h).

| Compound | GI50 | TGI |
| --- | --- | --- |
| COc1ccc(C(=O)COc2cccc(/C=C3\COc4ccc5ccccc5c4C3=O)c2)cc1 | 3.63 µM | 66.7 µM |
